From US20110028566A1, “COMPOSITIONS AND PRODUCTS CONTAINING CYCLOALIPHATIC DIOL ANTIMICROBIAL AGENTS AND METHODS OF USING THE COMPOSITIONS AND PRODUCTS” (EASTMAN CHEMICAL COMPANY, priority 2009, published 2011)

Assays:
Assay in all cases: Microbial challenge testing in BPW
Type in all cases: cell-based
[1] = system: Aspergillus niger
Procedure, shortened: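 A. niger grown in TSB with 1% dextrose and on SDA at 22° C.±2° C; spores harvested, filtered, adjusted to 1.0×10^8 and checked by hemocytometer.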

[2] = system: Aeromonas sp.
Procedure, shortened: (§1)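 Test materials, dosed as w/v % in BPW pH 7.0 with 1% dextrose, were challenged with bacteria at 10^5–10^6 cfu/mL starting count. Inocula came from 96 h or longer TSB-dextrose cultures, and counts were checked by PCA spread-plating. Samples were incubated 14 days at 35 °C, then at ambient temperature.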

[3] = system: Bacillus subtilis
Procedure, shortened: as §1

[4] = system: Burkholderia cepacia
Procedure, shortened: as §1

[5] = system: Escherichia coli
Procedure, shortened: as §1

[6] = system: Proteus vulgaris
Procedure, shortened: as §1

[7] = system: Pseudomonas aeruginosa
Procedure, shortened: as §1

[8] = system: Staphylococcus aureus
Procedure, shortened: as §1

SMILES: CC1(C)C(O)C(C)(C)C1O (stereo not drawn) [TMCD, 2,2,4,4-tetramethyl-1,3-cyclobutanediol]
- Grade code A. niger ([1]; 0.5%, 3 days incubation): 5
- Grade code A. niger ([1]; 0.5%, 13 days incubation): 5
- Grade code A. niger ([1]; 0.5%, 30 days incubation): 5
- Grade code A. niger ([1]; 1.25%, 3 days incubation): 4
- Grade code A. niger ([1]; 1.25%, 13 days incubation): 4
- Grade code A. niger ([1]; 1.25%, 30 days incubation): 4
- Grade code A. niger ([1]; 2.5%, 3 days incubation): 3 (Individual colonies not countable; >75% of plate covered with growth)
- Grade code A. niger ([1]; 2.5%, 13 days incubation): 2 (Countable (11 to 100 colonies))
- Grade code A. niger ([1]; 2.5%, 30 days incubation): 3 (Individual colonies not countable; >75% of plate covered with growth)
- Grade code Aeromonas sp ([2]; 0.5%, 3 days incubation): 5 (More than 10,000 colonies estimated (thus >100,000 cfu/mL))
- Grade code Aeromonas sp ([2]; 0.5%, 14 days incubation): 4 (1001 to 10,000 colonies (thus 10,000 cfu/mL to 100,000 cfu/mL))
- Grade code Aeromonas sp ([2]; 0.5%, 30 days incubation): 4 (1001 to 10,000 colonies (thus 10,000 cfu/mL to 100,000 cfu/mL))
- Grade code Aeromonas sp ([2]; 1.25%, 3 days incubation): 4 (1001 to 10,000 colonies (thus 10,000 cfu/mL to 100,000 cfu/mL))
- Grade code Aeromonas sp ([2]; 1.25%, 14 days incubation): 4 (1001 to 10,000 colonies (thus 10,000 cfu/mL to 100,000 cfu/mL))
- Grade code Aeromonas sp ([2]; 1.25%, 30 days incubation): 4 (1001 to 10,000 colonies (thus 10,000 cfu/mL to 100,000 cfu/mL))
- Grade code Aeromonas sp ([2]; 2.5%, 3 days incubation): 4 (1001 to 10,000 colonies (thus 10,000 cfu/mL to 100,000 cfu/mL))
- Grade code Aeromonas sp ([2]; 2.5%, 14 days incubation): 2 (52 to 100 colonies counted (thus 520 to 1000 cfu/mL))
- Grade code Aeromonas sp ([2]; 2.5%, 30 days incubation): 3 (101 to 1000 colonies (thus 1000 to 10,000 cfu/mL))
- Grade code B. subtilis ([3]; 0.5%, 3 days incubation): 4 (1001 to 10,000 colonies (thus 10,000 cfu/mL to 100,000 cfu/mL))
- Grade code B. subtilis ([3]; 0.5%, 14 days incubation): 4 (1001 to 10,000 colonies (thus 10,000 cfu/mL to 100,000 cfu/mL))
- Grade code B. subtilis ([3]; 0.5%, 30 days incubation): 4 (1001 to 10,000 colonies (thus 10,000 cfu/mL to 100,000 cfu/mL))
- Grade code B. subtilis ([3]; 1.25%, 3 days incubation): 4 (1001 to 10,000 colonies (thus 10,000 cfu/mL to 100,000 cfu/mL))
- Grade code B. subtilis ([3]; 1.25%, 14 days incubation): 4 (1001 to 10,000 colonies (thus 10,000 cfu/mL to 100,000 cfu/mL))
- Grade code B. subtilis ([3]; 1.25%, 30 days incubation): 4 (1001 to 10,000 colonies (thus 10,000 cfu/mL to 100,000 cfu/mL))
- Grade code B. subtilis ([3]; 2.5%, 3 days incubation): 4 (1001 to 10,000 colonies (thus 10,000 cfu/mL to 100,000 cfu/mL))
- Grade code B. subtilis ([3]; 2.5%, 14 days incubation): 4 (1001 to 10,000 colonies (thus 10,000 cfu/mL to 100,000 cfu/mL))
- Grade code B. subtilis ([3]; 2.5%, 30 days incubation): 4 (1001 to 10,000 colonies (thus 10,000 cfu/mL to 100,000 cfu/mL))
- Grade code B. cepacia ([4]; 0.5%, 3 days incubation): 4 (1001 to 10,000 colonies (thus 10,000 cfu/mL to 100,000 cfu/mL))
- Grade code B. cepacia ([4]; 0.5%, 14 days incubation): 4 (1001 to 10,000 colonies (thus 10,000 cfu/mL to 100,000 cfu/mL))
- Grade code B. cepacia ([4]; 0.5%, 30 days incubation): 4 (1001 to 10,000 colonies (thus 10,000 cfu/mL to 100,000 cfu/mL))
- Grade code B. cepacia ([4]; 1.25%, 3 days incubation): 3 (101 to 1000 colonies (thus 1000 to 10,000 cfu/mL))
- Grade code B. cepacia ([4]; 1.25%, 14 days incubation): 2 (52 to 100 colonies counted (thus 520 to 1000 cfu/mL))
- Grade code B. cepacia ([4]; 1.25%, 30 days incubation): 4 (1001 to 10,000 colonies (thus 10,000 cfu/mL to 100,000 cfu/mL))
- Grade code B. cepacia ([4]; 2.5%, 3 days incubation): 1 (1 to 51 colonies counted (thus 10 to 510 cfu/mL))
- Grade code B. cepacia ([4]; 2.5%, 14 days incubation): 0 (No growth detected or <1 colony (thus <10 cfu/mL))
- Grade code B. cepacia ([4]; 2.5%, 30 days incubation): 0 (No growth detected or <1 colony (thus <10 cfu/mL))
- Grade code E. coli ([5]; 0.5%, 3 days incubation): 5 (More than 10,000 colonies estimated (thus >100,000 cfu/mL))
- Grade code E. coli ([5]; 0.5%, 14 days incubation): 4 (1001 to 10,000 colonies (thus 10,000 cfu/mL to 100,000 cfu/mL))
- Grade code E. coli ([5]; 0.5%, 30 days incubation): 4 (1001 to 10,000 colonies (thus 10,000 cfu/mL to 100,000 cfu/mL))
- Grade code E. coli ([5]; 1.25%, 3 days incubation): 4 (1001 to 10,000 colonies (thus 10,000 cfu/mL to 100,000 cfu/mL))
- Grade code E. coli ([5]; 1.25%, 14 days incubation): 4 (1001 to 10,000 colonies (thus 10,000 cfu/mL to 100,000 cfu/mL))
- Grade code E. coli ([5]; 1.25%, 30 days incubation): 4 (1001 to 10,000 colonies (thus 10,000 cfu/mL to 100,000 cfu/mL))
- Grade code E. coli ([5]; 2.5%, 3 days incubation): 4 (1001 to 10,000 colonies (thus 10,000 cfu/mL to 100,000 cfu/mL))
- Grade code E. coli ([5]; 2.5%, 14 days incubation): 4 (1001 to 10,000 colonies (thus 10,000 cfu/mL to 100,000 cfu/mL))
- Grade code E. coli ([5]; 2.5%, 30 days incubation): 4 (1001 to 10,000 colonies (thus 10,000 cfu/mL to 100,000 cfu/mL))
- Grade code P. vulqaris ([6]; 0.5%, 3 days incubation): 4 (1001 to 10,000 colonies (thus 10,000 cfu/mL to 100,000 cfu/mL))
- Grade code P. vulqaris ([6]; 0.5%, 13 days incubation): 4 (1001 to 10,000 colonies (thus 10,000 cfu/mL to 100,000 cfu/mL))
- Grade code P. vulqaris ([6]; 0.5%, 30 days incubation): 4 (1001 to 10,000 colonies (thus 10,000 cfu/mL to 100,000 cfu/mL))
- Grade code P. vulqaris ([6]; 1.25%, 3 days incubation): 3 (101 to 1000 colonies (thus 1000 to 10,000 cfu/mL))
- Grade code P. vulqaris ([6]; 1.25%, 13 days incubation): 2 (52 to 100 colonies counted (thus 520 to 1000 cfu/mL))
- Grade code P. vulqaris ([6]; 1.25%, 30 days incubation): 0 (No growth detected or <1 colony (thus <10 cfu/mL))
- Grade code P. vulqaris ([6]; 2.5%, 3 days incubation): 4 (1001 to 10,000 colonies (thus 10,000 cfu/mL to 100,000 cfu/mL))
- Grade code P. vulqaris ([6]; 2.5%, 13 days incubation): 1 (1 to 51 colonies counted (thus 10 to 510 cfu/mL))
- Grade code P. vulqaris ([6]; 2.5%, 30 days incubation): 0 (No growth detected or <1 colony (thus <10 cfu/mL))
- Grade code P. aeruginosa ([7]; 0.5%, 3 days incubation): 4 (1001 to 10,000 colonies (thus 10,000 cfu/mL to 100,000 cfu/mL))
- Grade code P. aeruginosa ([7]; 0.5%, 13 days incubation): 4 (1001 to 10,000 colonies (thus 10,000 cfu/mL to 100,000 cfu/mL))
- Grade code P. aeruginosa ([7]; 0.5%, 30 days incubation): 4 (1001 to 10,000 colonies (thus 10,000 cfu/mL to 100,000 cfu/mL))
- Grade code P. aeruginosa ([7]; 1.25%, 3 days incubation): 4 (1001 to 10,000 colonies (thus 10,000 cfu/mL to 100,000 cfu/mL))
- Grade code P. aeruginosa ([7]; 1.25%, 13 days incubation): 4 (1001 to 10,000 colonies (thus 10,000 cfu/mL to 100,000 cfu/mL))
- Grade code P. aeruginosa ([7]; 1.25%, 30 days incubation): 4 (1001 to 10,000 colonies (thus 10,000 cfu/mL to 100,000 cfu/mL))
- Grade code P. aeruginosa ([7]; 2.5%, 3 days incubation): 4 (1001 to 10,000 colonies (thus 10,000 cfu/mL to 100,000 cfu/mL))
- Grade code P. aeruginosa ([7]; 2.5%, 13 days incubation): 3 (101 to 1000 colonies (thus 1000 to 10,000 cfu/mL))
- Grade code P. aeruginosa ([7]; 2.5%, 30 days incubation): 4 (1001 to 10,000 colonies (thus 10,000 cfu/mL to 100,000 cfu/mL))
- Grade code S. aureus ([8]; 0.5%, 3 days incubation): 4 (1001 to 10,000 colonies (thus 10,000 cfu/mL to 100,000 cfu/mL))
- Grade code S. aureus ([8]; 0.5%, 14 days incubation): 4 (1001 to 10,000 colonies (thus 10,000 cfu/mL to 100,000 cfu/mL))
- Grade code S. aureus ([8]; 0.5%, 30 days incubation): 4 (1001 to 10,000 colonies (thus 10,000 cfu/mL to 100,000 cfu/mL))
- Grade code S. aureus ([8]; 1.25%, 3 days incubation): 4 (1001 to 10,000 colonies (thus 10,000 cfu/mL to 100,000 cfu/mL))
- Grade code S. aureus ([8]; 1.25%, 14 days incubation): 4 (1001 to 10,000 colonies (thus 10,000 cfu/mL to 100,000 cfu/mL))
- Grade code S. aureus ([8]; 1.25%, 30 days incubation): 4 (1001 to 10,000 colonies (thus 10,000 cfu/mL to 100,000 cfu/mL))
- Grade code S. aureus ([8]; 2.5%, 3 days incubation): 2 (52 to 100 colonies counted (thus 520 to 1000 cfu/mL))
- Grade code S. aureus ([8]; 2.5%, 14 days incubation): 1 (1 to 51 colonies counted (thus 10 to 510 cfu/mL))
- Grade code S. aureus ([8]; 2.5%, 30 days incubation): 1 (1 to 51 colonies counted (thus 10 to 510 cfu/mL))
